Assay results published in patent US20050118290A1, “Compositions and method for treatment of steroid/nuclear receptor-mediated diseases” (University of Singapore, priority 2003, published 2005).
Values belong to the molecule of their own block, whether it stands above or below them.

Legend:
Assay type in all cases: cell-based
[1] = target: T1, human estrogen receptor ERβ (Homo sapiens, UniProt Q92731); experiment: ERβ MMTV-ERE-LUC reporter gene assay in HeLa cells; settings: for ERβ activity comparable to % maximal activity of Estradiol / maximal fold increase in ERβ activity: 30×10^−6 g/ml
T1 construct: expressed in transfected cells; host or cells: HeLa
Protocol: (§1) ERα and ERβ activity were assayed using plasmids encoding either ERα or ERβ co-transfected with the ERE-LUC reporter gene. To assay estrogen receptor agonist activity, HeLa cells were transiently co-transfected with two plasmids (Tcherepanova, et al., 2000) using Lipofectamine. The first plasmid comprised DNA encoding human estrogen receptor (either ERα or ERβ), and the second plasmid comprised an estrogen-driven reporter system comprising: a luciferase reporter gene (LUC) whose transcription is under the control of upstream regulatory elements comprising 4 copies of the vitellogenin estrogen response element (ERE) cloned into the Mouse Mammary Tumor Virus (MMTV) promoter (the full name of the reporter system being ‘MMTV-ERE-LUC’).
(§2) AR, PR, GR and ERα and […] were determined by comparing luciferase activity in test cells with control cells exposed to vehicle (i.e., ethanol or methanol) only, analogous to the determination of PPAR activity as described in the previous examples.

[2] = target: T2, human estrogen receptor ERα (Homo sapiens, UniProt P03372); experiment: ERα MMTV-ERE-LUC reporter gene assay in HeLa cells
T2 construct: expressed in transfected cells; host or cells: HeLa
T2 sequence (P03372 1-595): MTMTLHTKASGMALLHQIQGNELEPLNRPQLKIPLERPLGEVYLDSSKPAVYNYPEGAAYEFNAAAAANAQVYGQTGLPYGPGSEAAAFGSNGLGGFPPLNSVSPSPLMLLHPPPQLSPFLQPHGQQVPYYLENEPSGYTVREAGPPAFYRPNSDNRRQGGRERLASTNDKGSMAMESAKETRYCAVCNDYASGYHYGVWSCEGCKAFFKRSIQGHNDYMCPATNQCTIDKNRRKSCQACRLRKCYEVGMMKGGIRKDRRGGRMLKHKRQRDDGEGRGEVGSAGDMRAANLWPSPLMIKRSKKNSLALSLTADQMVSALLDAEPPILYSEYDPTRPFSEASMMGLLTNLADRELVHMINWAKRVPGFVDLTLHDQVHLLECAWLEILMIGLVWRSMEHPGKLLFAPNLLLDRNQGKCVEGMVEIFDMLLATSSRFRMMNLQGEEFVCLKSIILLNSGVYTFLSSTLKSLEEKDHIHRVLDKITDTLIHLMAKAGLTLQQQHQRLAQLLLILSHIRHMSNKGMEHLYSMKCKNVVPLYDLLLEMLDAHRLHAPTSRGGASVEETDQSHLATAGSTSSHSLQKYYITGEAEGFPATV
Protocol: as §1, §2

[3] = target: T3, PPARα (Homo sapiens, UniProt Q07869); experiment: Chimeric Gal4DBD-PPARαLBD receptor / UASg-luciferase reporter gene assay in HeLa cells
T3 construct: expressed in transfected cells; host or cells: HeLa
T3 sequence (Q07869 239-466 limits assumed): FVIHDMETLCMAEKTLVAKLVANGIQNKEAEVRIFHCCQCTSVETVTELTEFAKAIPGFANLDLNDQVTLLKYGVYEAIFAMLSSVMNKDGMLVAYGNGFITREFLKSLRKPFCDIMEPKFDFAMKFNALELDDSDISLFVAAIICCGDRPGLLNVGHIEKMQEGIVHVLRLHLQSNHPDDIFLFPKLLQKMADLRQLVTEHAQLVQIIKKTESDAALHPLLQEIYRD
Excerpt: In an example of such a reporter gene assay, a plasmid containing chimeric Ga14DBD-PPARLBD receptor cDNA was constructed by excising the ligand binding domain (LBD) of full length PPARγ and PPARα and ligating the resulting fragments in frame to the Ga14-DNA binding domain (DBD) of Saccharomyces cerevisiae in a pM vector (Clontech). Specifically, to construct Ga14DBD-PPARγLBD plasmid, pSG5 expression vector (Stratagene) containing full length PPARγ was excised with Rsa I and blunt ligated to Hind III site of pMGa14DBD expression plasmid (Clontech). To construct Ga14DBD-PPARαLBD plasmid, pSG5 expression vector (Stratagene) containing full length PPARα was excised with BstU I and BamH I and blunt-end ligated in frame to BamH I site of pMGa14DBD expression plasmid (Clontech). […] Ga14 DBD binds very strongly to the exogenous UASg promoter, thereby giving rise to a sensitive and specific assay. To measure PPARγ and PPARα agonist activity, HeLa cells were grown in 24-well microtiter plates and then transiently co-transfected with the two plasmids (chimeric PPAR receptor and UASg reporter gene) using Lipofectamine (Invitrogen). […] Concurrently, cells exposed to known PPAR ligands served as positive controls. Replicate wells, exposed to the vehicle solvent (i.e., ethanol or methanol) in which herbal extracts were dissolved, were used as negative controls. After the 40 hr incubation period, cells were rinsed with phosphate buffered saline (PBS), lysis buffer was added, and cell lysates were collected for measurement of luciferase activity using a luminometer. […] All data points are in triplicate. The data points represent the mean of triplicate wells. Luciferase activity in such an assay accurately reflects the activity of any ligands on PPARγ or PPARα.

T1 sequence (Q92731 whole entry): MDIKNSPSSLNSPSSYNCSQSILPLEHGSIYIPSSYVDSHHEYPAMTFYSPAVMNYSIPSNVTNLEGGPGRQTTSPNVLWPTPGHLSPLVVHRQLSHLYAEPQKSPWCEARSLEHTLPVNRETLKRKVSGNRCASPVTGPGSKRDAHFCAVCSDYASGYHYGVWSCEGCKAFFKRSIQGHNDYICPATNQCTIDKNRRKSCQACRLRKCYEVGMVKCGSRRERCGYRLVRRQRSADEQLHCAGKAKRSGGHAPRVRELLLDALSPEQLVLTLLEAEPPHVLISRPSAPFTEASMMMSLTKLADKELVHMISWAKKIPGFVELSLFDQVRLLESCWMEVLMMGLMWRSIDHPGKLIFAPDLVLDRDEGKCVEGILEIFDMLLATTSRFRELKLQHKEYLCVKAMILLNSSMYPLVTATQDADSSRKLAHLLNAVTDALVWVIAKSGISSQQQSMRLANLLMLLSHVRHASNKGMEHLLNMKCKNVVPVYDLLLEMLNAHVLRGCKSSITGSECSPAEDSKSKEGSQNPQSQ

effect on ERβ activity of estradiol ([1]; 1 to 30×10^−6 g/mL + estradiol 1×10^−9M): additive
ERβ activity comparable to % maximal activity of Estradiol [1]: ~400%
maximal fold increase in ERβ activity [1]: 100 fold
Luciferase activity (Fold over vehicle ± SE) ERβ/Estradiol (1 × 10^−9M) ([1]; calycosin 3 ×10^−6 g/mL): 55.2 ± 1.21 Fold
Luciferase activity (Fold over vehicle ± SE) ERβ/Estradiol (1 × 10^−9M) ([1]; calycosin 10 ×10^−6 g/mL): 65.1 ± 2.71 Fold
Luciferase activity (Fold over vehicle ± SE) ERβ/Estradiol (1 × 10^−9M) ([1]; calycosin 30 ×10^−6 g/mL): 70.7 ± 3.61 Fold
ERα activity comparable to % maximal activity of Estradiol ([2]; 30×10^−6 g/ml): ~50%
maximal fold increase in ERα activity ([2]; 30×10^−6 g/ml): 20 fold
Luciferase activity (Fold over vehicle ± SE) ERα/Estradiol (1 × 10^−9M) ([2]; calycosin 3 ×10^−6 g/mL): 118 ± 2.18 Fold
Luciferase activity (Fold over vehicle ± SE) ERα/Estradiol (1 × 10^−9M) ([2]; calycosin 10 ×10^−6 g/mL): 127 ± 6.3 Fold
Luciferase activity (Fold over vehicle ± SE) ERα/Estradiol (1 × 10^−9M) ([2]; calycosin 30 ×10^−6 g/mL): 114 ± 4.18 Fold
increase of the activity of maximal doses of estradiol on ERα ([2]; with estradiol 1×10^−9M): 2.9 fold
Luciferase activity (Fold over vehicle ± SE) PPARα/WY14643 (30 × 10^−6M) ([3]; calycosin 3 ×10^−6 g/mL): 197 ± 20.6 Fold
Luciferase activity (Fold over vehicle ± SE) PPARα/WY14643 (30 × 10^−6M) ([3]; calycosin 10 ×10^−6 g/mL): 257 ± 8.85 Fold
Luciferase activity (Fold over vehicle ± SE) PPARα/WY14643 (30 × 10^−6M) ([3]; calycosin 30 ×10^−6 g/mL): 294 ± 39.2 Fold
increase of the activity of maximal doses of PPARα agonist ([3]; with WY14643 30×10^−6M): 1.8 fold
Structure (SMILES): COc1ccc(-c2coc3cc(O)ccc3c2=O)cc1O [calycosin, 3′,7-Dihydroxy-4′-methoxyisoflavone]

ERβ activity comparable to % maximal activity of Estradiol [1]: ~200%
maximal fold increase in ERβ activity [1]: 29 fold
ERα activity comparable to % maximal activity of Estradiol ([2]; 5×10^−6 g/ml): ~100%
maximal fold increase in ERα activity ([2]; 5×10^−6 g/ml): 20 fold
PPARα activity comparable to % maximal activity of W14643 ([3]; 10×10^−6 g/ml): ~73%
maximal fold PPARα activity ([3]; 10×10^−6 g/ml): 8 fold
Luciferase activity (Fold over vehicle ± SE) PPARα/WY14643 (30 × 10^−6M) ([3]; daidzein 5 ×10^−6 g/mL): 58.2 ± 14.9 Fold
Luciferase activity (Fold over vehicle ± SE) PPARα/WY14643 (30 × 10^−6M) ([3]; daidzein 10 ×10^−6 g/mL): 71.3 ± 9.90 Fold
Luciferase activity (Fold over vehicle ± SE) PPARα/WY14643 (30 × 10^−6M) ([3]; daidzein 20 ×10^−6 g/mL): 53.4 ± 13.3 Fold
Structure (SMILES): O=c1c(-c2ccc(O)cc2)coc2cc(O)ccc12 [daidzein]
